# In patent US11241433B2, “Treatment or prevention of autism disorders using menthol, linalool and/or icilin” (Société des Produits Nestlé S.A., priority 2013, dated 2022):
# Key:
# Type in all cases: cell-based
# neocortex = test: action potential measurements in mouse brain slice, neocortex; settings: for amount of current required to trigger an action potential / threshold to trigger an action potential: neocortex
# Source text: (§1) A mouse brain slice was used to study the effects of Menthol, Linalool and Icilin. The amygdaloid complex is located within the medial temporal lobe in neocortex and amygdala. The lateral and basolateral nuclei of the amygdaloid complex receive sensory information from cortical and thalamic structures, process the information, and then transmit the information, either directly or through the basal nucleus, to the central nucleus. For experimental analysis of neural activity, synaptic responses from the basolateral complex can be evoked electrically using electrodes, and the action potentials can be measured.
# [1] = tested on: Lateral Amygdala glutamatergic neuron (in a mouse brain slice); test: whole cell, current clamp recordings of spontaneous bursts with increasing concentration of gabazine
# Source text: as §1
# [2] = tested on: Lateral Amygdala glutamatergic neuron (in a mouse brain slice); test: whole cell, current clamp recordings, square pulse of 2.5 s at high depolarization; settings: square pulse of 2.5 s at high depolarization of membrane potential (approximately -30 mV); relative to control; FIG. 2
# Source text: as §1
# A square pulse of 2.5 s was applied at high depolarization of membrane potential (approximately −30 mV).
Compound,action potentials at higher stimulation levels (neocortex),amount of current required to trigger an action potential (neocortex),threshold to trigger an action potential (neocortex),"spontaneous action potential bursts ([1]; Menthol 250 μM applied extracellularly 10 minutes previous to and during increasing concentrations of gabazine, FIG. 5 compared to FIG. 3)",inactivation of the sodium fast channels / further neural firing [2],"spontaneous action potential bursts ([1]; increasing concentrations of gabazine alone, applied extracellularly, recordings of 5 minutes each, 10 minute washout, FIG. 3)"
CC1CCC(C(C)C)C(O)C1 (centres unmarked) [Menthol],abort action potentials at higher stimulation levels,increase the amount of current required to trigger an action potential,increase the threshold to trigger an action potential,complete absence or a strongly decreased presence of spontaneous bursts,inactivation of the sodium fast channels happens sooner relative to control,
COc1ccc(-c2ccc(=N)n(CCCC(=O)O)n2)cc1 [gabazine],,,,,,neurons spontaneously present action potential bursts
C=CC(C)(O)CCC=C(C)C (centres unmarked) [Linalool],abort action potentials at higher stimulation levels,increase the amount of current required to trigger an action potential,increase the threshold to trigger an action potential,,inactivation of the sodium fast channels happens sooner relative to control,
O=C1NC(c2cccc([N+](=O)[O-])c2)=CCN1c1ccccc1O [Icilin],abort action potentials at higher stimulation levels,increase the amount of current required to trigger an action potential,increase the threshold to trigger an action potential,,inactivation of the sodium fast channels happens sooner relative to control,
